Laboratory results as given in patent publication US20120122931A1, “INDOLE DERIVATIVE OR PHARMACEUTICALLY ACCEPTABLE SALT THEREOF” (KISSEI PHARMACEUTICAL CO., LTD., priority 2009, published 2012).

What follows are molecules tested against T1, rat EP1 receptor (Rattus norvegicus, UniProt P70597) (assay: Test for confirmation of EP1 receptor antagonism: inhibition of prostaglandin E2-induced increase in intracellular calcium concentration (Method A or Method B)). Settings: Method B (Calcium kit II Fluo 4, FDSS 7000); rat EP1 receptor-expressing cells; prostaglandin E2 10 nM.
T1 construct: expressed in transfected cells; host or cells: COS-1 cells, transient transfection with Lipofectamine 2000
T1 sequence (P70597 1-405): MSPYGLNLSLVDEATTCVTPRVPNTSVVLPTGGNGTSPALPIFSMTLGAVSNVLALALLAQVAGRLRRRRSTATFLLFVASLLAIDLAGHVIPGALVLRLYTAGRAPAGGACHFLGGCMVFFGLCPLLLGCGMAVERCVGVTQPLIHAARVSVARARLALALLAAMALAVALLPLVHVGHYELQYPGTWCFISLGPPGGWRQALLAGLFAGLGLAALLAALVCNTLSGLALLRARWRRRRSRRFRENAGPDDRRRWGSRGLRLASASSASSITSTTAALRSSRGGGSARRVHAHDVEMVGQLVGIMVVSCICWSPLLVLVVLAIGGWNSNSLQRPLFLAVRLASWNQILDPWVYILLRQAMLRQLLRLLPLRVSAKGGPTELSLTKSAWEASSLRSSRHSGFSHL
Format: cell-based
Method: (1) Preparation of Rat EP1 Expression vector
Using Rat Kidney BD Marathon-Ready cDNA (Nippon Becton Dickinson Company, Ltd.) as a template, a forward primer shown in SEQ ID NO. 1, and a reverse primer shown in SEQ ID NO. 2, a first run of PCR was carried out using KOD-Plus-Ver 2.0 (Toyobo Co., Ltd.). Further, using this amplification product as a template, a forward primer shown in SEQ ID NO. 3, and a reverse primer shown in SEQ ID NO. 4, a second run of PCR was carried out in the same manner. The amplification product obtained by the second run of PCR was incorporated into a vector (pcDNA3.1 D/V5-His-TOPO (registered trademark), Invitrogen Japan K. K.). By a conventional method, the vector containing this amplification product was introduced to E. coli (One Shot TOP10 Competent Cells, Invitrogen Corporation) to transform. This transformed E. coli was cultured in an LB agar medium for one day. After the culture, colonies were selected and cultured in an LB liquid medium containing 50 μg/mL of ampicillin. After the culture, the vector was purified using a QIAprep Spin Miniprep Kit (Qiagen K. K.). The base sequence of the insertion site of this vector (SEQ ID NO. 5) was compared with the rat EP1 base sequence (Ptger1) registered as an accession number NM_013100 in well-known database (NCBI), and as a result, they all matched except for a single base. Further, the amino acid sequence translated by the base sequence completely matched the amino acid sequence of the rat EP1 receptor registered as an NCBI accession number NP_037232. Therefore, it was confirmed that the cloned gene sequence was a base sequence of the rat EP1 receptor and the obtained amino acid sequence was that of the rat EP1 receptor. The pcDNA3.1 D/V5-His-TOPO (registered trademark) to which the nucleic acid shown in SEQ ID NO. 5 had been inserted was taken as a rat EP1-expressing vector.
(2) Preparation of Rat EP1 Receptor-Expressing Cells
COS-1 cells (Dainippon Sumitomo Pharma Co., Ltd.) were cultured until it reached confluence in an incubator at 37° C. under a 5% CO2 gas condition, using a D-MEM liquid medium (high glucose and L-glutamine contained, Invitrogen Corporation) to which a penicillin-streptomycin solution (Invitrogen Corporation, final concentration: 100 U/mL as benzylpenicillin; 100 μg/mL as streptomycin) as an antibiotic, MEM nonessential amino acids (Invitrogen Corporation, final Concentration: 0.1 mM), and fetal calf serum (Sanko Junyaku Co., Ltd., final concentration: 10%) were added.
(2-2) COS-1 Cell Subculture
The cells that had reached confluence were stripped with 0.05% trypsin/0.53 mM EDTA 4Na (Invitrogen Japan K. K.) and resuspended in the above liquid medium. The resuspended cells were diluted and cultured in the above liquid medium at a spread ratio from 1:4 to 1:8.
(2-3) Preparation of Cells for Introduction of Rat EP1-Expressing Vector
The cells that had reached confluence were stripped with 0.05% trypsin/0.53 mM EDTA.4Na, and resuspended in a D-MEM liquid medium (high glucose and L-glutamine contained, Invitrogen Corporation) to which an MEM nonessential amino acid (final concentration: 0.1 mM) and fetal calf serum (final concentration: 10%) were added. In each well of a Poly D-lysine-coated 96-well microplate (BD BioCoat (registered trademark), Nippon Becton Dickinson Company, Ltd.), this resuspended cell suspension culture was prepared to be 5×10^4 cells/well in 100 μL of the liquid medium, and seeded thereon. After seeding, the cells were cultured in an incubator at 37° C. under a 5% CO2 gas condition. At a point when the cells for introduction of a rat EP1-expressing vector were adhered (about 2 hours after seeding), introduction of the rat EP1-expressing vector was carried out in the following order.
(2-4) Introduction of Rat EP1-Expressing Vector
For introduction of the rat EP1-expressing vector, Lipofectamine 2000 (Invitrogen Japan K. K.) was used. […]

Row | IC50 [nM] | Compound
1 | 19 | Cc1cc2c(Cc3cccc(C(=O)O)n3)c(-c3ccccc3)[nH]c2cc1Cl [Example 16-59, 6-(6-chloro-5-methyl-2-phenyl-1H-indol-3-ylmethyl)pyridine-2-carboxylic acid]
2 | 32 | CCOc1ccc2c(Cc3cccc(C(=O)O)n3)c(-c3ccc(F)cc3)[nH]c2c1 [Example 16-60, 6-[6-ethoxy-2-(4-fluorophenyl)-1H-indol-3-ylmethyl]pyridine-2-carboxylic acid]
3 | 43 | CCOc1ccc2c(Cc3cccc(C(=O)O)n3)c(-c3ccsc3)[nH]c2c1 [Example 16-61, 6-(6-ethoxy-2-thiophen-3-yl-1H-indol-3-ylmethyl)pyridine-2-carboxylic acid]
4 | 27 | O=C(O)c1cccc(Cc2c(-c3ccc(F)cc3)[nH]c3cc(C4CC4)ccc23)n1 [Example 16-62, 6-[6-cyclopropyl-2-(4-fluorophenyl)-1H-indol-3-ylmethyl]pyridine-2-carboxylic acid]
5 | 14 | O=C(O)c1cccc(Cc2c(-c3ccsc3)[nH]c3cc(C4CC4)ccc23)n1 [Example 16-65, 6-(6-cyclopropyl-2-thiophen-3-yl-1H-indol-3-ylmethyl)pyridine-2-carboxylic acid]
6 | 30 | COc1cc2[nH]c(-c3cccnc3)c(Cc3cccc(C(=O)O)n3)c2cc1C [Example 16-66, 6-(6-methoxy-5-methyl-2-pyridin-3-yl-1H-indol-3-ylmethyl)pyridine-2-carboxylic acid]
7 | 22 | O=C(O)c1cccc(Cc2c(-c3cccnc3)[nH]c3cc(C4CC4)ccc23)n1 [Example 16-67, 6-(6-cyclopropyl-2-pyridine-3-yl-1H-indol-3-ylmethyl)pyridine-2-carboxylic acid]

The remaining lines, values behind:

Row | Compound | IC50 [nM]
8 | O=C(O)c1cccc(Cc2c(-c3ccccc3)[nH]c3cc(Br)ccc23)n1 [Example 16-38] | 36
9 | Cc1cc2[nH]c(-c3ccccc3)c(Cc3cccc(C(=O)O)n3)c2cc1C [Example 16-44, 6-(5,6-dimethyl-2-phenyl-1H-indol-3-ylmethyl)pyridine-2-carboxylic acid] | 11
10 | O=C(O)c1cccc(Cc2c(-c3ccccc3)[nH]c3cc(C(F)(F)F)c(F)cc23)n1 [Example 16-45] | 26
11 | Cc1ccc2c(Cc3cccc(C(=O)O)n3)c(-c3ccc(F)cc3)[nH]c2c1 [Example 16-48, 6-[2-(4-fluorophenyl)-6-methyl-1H-indol-3-ylmethyl]pyridine-2-carboxylic acid] | 27
12 | Cc1cc2[nH]c(-c3ccsc3)c(Cc3cccc(C(=O)O)n3)c2cc1C [Example 16-51, 6-(5,6-dimethyl-2-thiophen-3-yl-1H-indol-3-ylmethyl)pyridine-2-carboxylic acid] | 14
13 | O=C(O)c1cccc(Cc2c(-c3ccsc3)[nH]c3cc(Cl)c(F)cc23)n1 [Example 16-52, 6-(6-chloro-5-fluoro-2-thiophen-3-yl-1H-indol-3-ylmethyl)pyridine-2-carboxylic acid] | 43
14 | Cc1cc2[nH]c(-c3ccccc3)c(Cc3cccc(C(=O)O)n3)c2cc1F [Example 16-53, 6-(5-fluoro-6-methyl-2-phenyl-1H-indol-3-ylmethyl)pyridine-2-carboxylic acid] | 31
15 | Cc1cc2[nH]c(-c3ccc(F)cc3)c(Cc3cccc(C(=O)O)n3)c2cc1F [Example 16-54, 6-[5-fluoro-2-(4-fluorophenyl)-6-methyl-1H-indol-3-ylmethyl]pyridine-2-carboxylic acid] | 47
16 | Cc1cc2[nH]c(-c3ccsc3)c(Cc3cccc(C(=O)O)n3)c2cc1F [Example 16-56, 6-(5-fluoro-6-methyl-2-thiophen-3-yl-1H-indol-3-ylmethyl)pyridine-2-carboxylic acid] | 39
17 | Cc1cc2[nH]c(-c3cccnc3)c(Cc3cccc(C(=O)O)n3)c2cc1C [Example 16-58, 6-(5,6-dimethyl-2-pyridin-3-yl-1H-indol-3-ylmethyl)pyridine-2-carboxylic acid] | 38
